One experiment deals with T1, pY641-STAT6 in PBMC (Homo sapiens, UniProt P42226).
T1 construct: Cryopreserved Peripheral Blood Mononuclear Cells (PBMC) are from AllCells; host or cells: cryopreserved PBMC
T1 sequence (P42226 1-847): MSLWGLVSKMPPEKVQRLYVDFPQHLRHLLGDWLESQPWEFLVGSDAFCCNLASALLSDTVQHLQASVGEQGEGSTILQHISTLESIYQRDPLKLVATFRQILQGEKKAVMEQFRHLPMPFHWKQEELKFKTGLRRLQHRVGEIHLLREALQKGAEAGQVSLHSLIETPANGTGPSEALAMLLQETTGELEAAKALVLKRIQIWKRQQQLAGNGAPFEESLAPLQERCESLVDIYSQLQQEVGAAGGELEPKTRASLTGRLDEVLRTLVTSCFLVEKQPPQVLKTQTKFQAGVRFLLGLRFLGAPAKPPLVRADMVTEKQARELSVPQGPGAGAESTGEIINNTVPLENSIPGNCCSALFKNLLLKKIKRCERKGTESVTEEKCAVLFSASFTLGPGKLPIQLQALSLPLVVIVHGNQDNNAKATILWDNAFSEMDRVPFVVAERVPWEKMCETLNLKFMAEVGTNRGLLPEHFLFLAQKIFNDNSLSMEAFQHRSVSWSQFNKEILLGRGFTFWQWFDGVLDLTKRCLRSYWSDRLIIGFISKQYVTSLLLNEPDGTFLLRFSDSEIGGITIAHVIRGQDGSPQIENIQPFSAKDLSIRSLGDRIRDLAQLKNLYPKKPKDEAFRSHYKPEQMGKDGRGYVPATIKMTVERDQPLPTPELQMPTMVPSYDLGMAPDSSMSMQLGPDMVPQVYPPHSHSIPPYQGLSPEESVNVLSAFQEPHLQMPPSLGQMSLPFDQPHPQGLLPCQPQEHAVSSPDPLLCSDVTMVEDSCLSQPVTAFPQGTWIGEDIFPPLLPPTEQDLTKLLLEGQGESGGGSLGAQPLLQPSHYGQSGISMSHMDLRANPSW
The experiment can be described thus: MSD-pSTAT-PBMC Assay (pSTAT6, IL-4 stimulated). It is filed as cell-based. As to conditions: compound 3 hrs, then 1 ng/mL IL-4 for 10 min. Put shortly:
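Thawed human PBMC rested overnight in IMDM/10% FBS, then got compound for 3 hrs before a 10 min cytokine pulse: 1 ng/mL IL-4 for pSTAT6, 10 ng/mL IL-6 for pSTAT3. Lysates went to MSD sandwich capture on total STAT6 or STAT3 with phospho-specific detection. IC50 came from background-subtracted, DMSO-normalized signal.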

In the next experiment the target is T2, pY705-STAT3 in PBMC (Homo sapiens, UniProt P40763).
T2 construct: Cryopreserved Peripheral Blood Mononuclear Cells (PBMC) are from AllCells; host or cells: cryopreserved PBMC
Description: MSD-pSTAT-PBMC Assay (pSTAT3, IL-6 stimulated). It is filed as cell-based. Conditions: PBMC, compound 3 hrs, then 10 ng/mL IL-6 for 10 min. Put shortly:
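pY705-STAT3 was detected electrochemiluminescently on total-STAT3 capture plates, using lysates of human PBMCs given compound for 3 h and then IL-6 (10 ng/mL, 10 min). Values were background-subtracted against unstimulated wells and set relative to DMSO. IC50 was fitted with variable slope.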

Setting [1] is: PBMC, Table 1114, read-out: pSTAT6.

Where two headings read alike, the source gives them in different places.

T2 sequence (P40763 whole entry): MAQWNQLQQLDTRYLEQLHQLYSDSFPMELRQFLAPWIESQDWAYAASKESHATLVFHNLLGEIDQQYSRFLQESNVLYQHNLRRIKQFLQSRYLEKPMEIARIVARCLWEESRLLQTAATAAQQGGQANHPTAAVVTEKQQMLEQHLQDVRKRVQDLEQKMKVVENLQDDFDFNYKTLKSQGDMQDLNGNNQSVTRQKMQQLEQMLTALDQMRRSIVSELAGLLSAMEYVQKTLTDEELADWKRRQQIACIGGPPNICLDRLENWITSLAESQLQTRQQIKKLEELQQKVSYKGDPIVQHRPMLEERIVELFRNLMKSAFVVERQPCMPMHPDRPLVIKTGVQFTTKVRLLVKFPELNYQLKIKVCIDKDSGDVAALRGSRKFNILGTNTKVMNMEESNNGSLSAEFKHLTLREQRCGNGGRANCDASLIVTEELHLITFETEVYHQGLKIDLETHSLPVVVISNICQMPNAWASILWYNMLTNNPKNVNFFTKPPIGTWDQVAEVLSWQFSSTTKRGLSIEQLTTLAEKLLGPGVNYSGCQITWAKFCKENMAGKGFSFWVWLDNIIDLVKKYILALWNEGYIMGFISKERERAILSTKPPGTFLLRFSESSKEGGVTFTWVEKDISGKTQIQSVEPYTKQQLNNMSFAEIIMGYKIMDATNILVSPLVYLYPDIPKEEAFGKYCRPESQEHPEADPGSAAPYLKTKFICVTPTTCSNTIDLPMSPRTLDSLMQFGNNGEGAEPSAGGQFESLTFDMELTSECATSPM

With `CC(C)(C)C(=O)SCCOP(=O)(OCCSC(=O)C(C)(C)C)C(F)(F)c1ccc2sc(C(=O)N[C@H]3CCCC[C@H]4CC[C@@H](C(=O)N5CC(c6c[nH]cn6)C5)N4C3=O)cc2c1` [Compound 182, S,S′-(((3S,6S,10aS)-3-(3-(1H-imidazol-4-yl)azetidine-1-carbonyl)-5-oxodecahydropyrrolo [1,2-a]azocin-6-yl)carbamoyl)benzo[b] thiophen-5-yl) difluoromethyl) phosphoryl)bis(oxy)) bis(ethane-2,1-diyl)) bis(2,2-dimethylpropanethioate)], the IC50 at pY641-STAT6 in PBMC (setting [1]) was 1000 to 3000 nM; on pY705-STAT3 in PBMC (Table 1114, read-out: pSTAT3) it was less than 100 nM.

For the compound `CC(C)(C)C(=O)OCOP(=O)(OCOC(=O)C(C)(C)C)C(F)(F)c1ccc2sc(C(=O)N[C@@]3(C)CCCC[C@H]4CC[C@@H](C(=O)N5CC(C(=O)N6CCOCC6)C5)N4C3=O)cc2c1` [Compound 186, (((difluoro(2-(((3S,6S, 10aS)-6-methyl-3-(3-(morpholine-4-carbonyl)azetidine-1-carbonyl)-5-oxodeca-hydropyrrolo [1,2-a]azocin-6-yl)carbamoyl)benzo[b]thiophen-5-yl)methyl)phosphoryl)bis (oxy))bis (methylene) bis(2,2-dimethyl-propanoate)], the IC50 on pY641-STAT6 in PBMC (setting [1]) was greater than 3000 nM; at pY705-STAT3 in PBMC (Table 1114, read-out: pSTAT3) it was less than 100 nM.

As for `CC(C)(C)C(=O)OCOP(=O)(OCOC(=O)C(C)(C)C)C(F)(F)c1ccc2sc(C(=O)N[C@H]3CCC[C@H]4CC[C@@H](C(=O)N5CC(C(=O)N6CCOCC6)C5)N4C3=O)cc2c1` [Compound 187, (((difluoro(2-(((3S,6S,9aS)-3-(3-(morpholine-4-carbonyl)azetidine-1-carbonyl)-5-oxooctahydro-1H-pyrrolo[1,2-a]azepin-6-yl)carbamoyl)benzo[b]thiophen-5-yl)methyl)phosphoryl)bis (oxy))bis (methylene) bis(2,2-dimethyl-propanoate)], the IC50 at pY641-STAT6 in PBMC (setting [1]) was 1000 to 3000 nM; at pY705-STAT3 in PBMC (Table 1114, read-out: pSTAT3), less than 100 nM.

On to `CC(C)(C)C(=O)OCOP(=O)(OCOC(=O)C(C)(C)C)C(F)(F)c1ccc2sc(C(=O)N[C@H]3CCC[C@H]4CC[C@@H](C(=O)N5CC(c6ccccn6)C5)N4C3=O)cc2c1` [Compound 188, (((difluoro(2-(((3S,6S,9aS)-5-oxo-3-(3-(pyridin-2-yl)azetidine-1-carbonyl)octahydro-1H-pyrrolo[1,2-a]azepin-6-yl)carbamoyl)benzo[b]thiophen-5-yl)methyl)phosphoryl)bis (oxy))bis (methylene) bis(2,2-dimethyl-propanoate)], for which the IC50 was 100 to 1000 nM on pY641-STAT6 in PBMC (setting [1]) and less than 100 nM at pY705-STAT3 in PBMC (Table 1114, read-out: pSTAT3).

In the case of `CC(C)(C)C(=O)OCOP(=O)(OCOC(=O)C(C)(C)C)C(F)(F)c1ccc2sc(C(=O)N[C@H]3CCC[C@H]4CC[C@@H](C(=O)N5CC(c6cccnc6)C5)N4C3=O)cc2c1` [Compound 189, (((difluoro(2-(((3S,6S,9aS)-5-oxo-3-(3-(pyridin-3-yl)azetidine-1-carbonyl)octahydro-1H-pyrrolo[1,2-a]azepin-6-yl)carbamoyl)benzo[b]thiophen-5-yl)methyl)phosphoryl)bis (oxy))bis (methylene) bis(2,2-dimethyl-propanoate)], the IC50 at pY641-STAT6 in PBMC (setting [1]) was greater than 3000 nM; on pY705-STAT3 in PBMC (Table 1114, read-out: pSTAT3) it was less than 100 nM.

`CC(C)(C)C(=O)OCOP(=O)(OCOC(=O)C(C)(C)C)C(F)(F)c1ccc2sc(C(=O)N[C@H]3CCCC[C@H]4CC[C@@H](C(=O)N5CC6(CN(C(=O)Cc7ccccc7)C6)C5)N4C3=O)cc2c1` [Compound 191, (((difluoro(2-(((3S,6S,10aS)-5-oxo-3-(6-(2-phenylacetyl)-2,6-diazaspiro[3. 3]heptane-2-carbonyl)decahydro-pyrrolo [1,2-a]azocin-6-yl)carbamoyl)benzo[b]thiophen-5-yl)methyl)phosphoryl)bis (oxy))bis (methylene) bis(2,2-dimethyl-propanoate)]: the IC50 is 100 to 1000 nM at pY641-STAT6 in PBMC (setting [1]) and less than 100 nM on pY705-STAT3 in PBMC (Table 1114, read-out: pSTAT3).

Take `CC(C)(C)C(=O)OCOP(=O)(OCOC(=O)C(C)(C)C)C(F)(F)c1ccc2sc(C(=O)N[C@H]3CCCC[C@H]4CC[C@@H](C(=O)N5CCN(C(=O)c6cn[nH]c6)CC5)N4C3=O)cc2c1` [Compound 192, ((((2-(((3S,6S,10aS)-3-(4-(1H-pyrazole-4-carbonyl)piperazine-1-carbonyl)-5-oxodecahydro-pyrrolo[1,2-a]azocin-6-yl)carbamoyl)benzo[b]thiophen-5-yl)difluoro-methyl)phos-phoryl)bis(oxy)) bis(methylene) bis(2,2-dimethyl-propanoate)]: the IC50 at pY641-STAT6 in PBMC (setting [1]) fell in the range of 1000 to 3000 nM; at pY705-STAT3 in PBMC (Table 1114, read-out: pSTAT3), 100 to 1000 nM.

Regarding `CC(C)OC(=O)[C@H](C)NP(=O)(Cc1ccc2sc(C(=O)N[C@H]3CCC[C@H]4CC[C@@H](C(=O)N5CC(c6cccnc6)C5)N4C3=O)cc2c1)Oc1ccccc1` (stereo partly drawn) [Compound 195, isopropyl (((2-(((3S,6S,9aS)-5-oxo-3-(3-(pyridin-3-yl)azetidine-1-carbonyl)octa-hydro-1H-pyrrolo[1,2-a]azepin-6-yl)carbamoyl)benzo[b]thiophen-5-yl)methyl) (phenoxy)phosphoryl)-L-alaninate], the IC50 against pY641-STAT6 in PBMC (pSTAT6, PBMC, Table 1114) is greater than 3000 nM; at pY705-STAT3 in PBMC (Table 1114, read-out: pSTAT3) it was 100 to 1000 nM.

For `CC(C)OC(=O)[C@H](C)NP(=O)(Oc1ccccc1)C(F)c1ccc2sc(C(=O)N[C@H]3CCC[C@H]4CC[C@@H](C(=O)N5CC(c6cccnc6)C5)N4C3=O)cc2c1` (stereo partly drawn) [Compound 196, isopropyl ((fluoro(2-(((3S,6S,9aS)-5-oxo-3-(3-(pyridin-3-yl)azetidine-1-carbonyl)octahydro-1H-pyrrolo[1,2-a]azepin-6-yl)carbamoyl)benzo[b]thiophen-5-yl)methyl) (phenoxy)phosphoryl)-L-alaninate], the IC50 was greater than 3000 nM at pY641-STAT6 in PBMC (pSTAT6, PBMC, Table 1114) and 100 to 1000 nM on pY705-STAT3 in PBMC (Table 1114, read-out: pSTAT3).

As for `CC(C)(CO)C(=O)SCCOP(=O)(Oc1ccccc1)C(F)(F)c1ccc2sc(C(=O)N[C@H]3CCC[C@H]4CC[C@@H](C(=O)N5CC(c6cccnc6)C5)N4C3=O)cc2c1` (stereo partly drawn) [Compound 201, S-(2-(((difluoro(2-(((3S,6S,9aS)-5-oxo-3-(3-(pyridin-3-yl)azetidine-1-carbonyl)octahydro-1H-pyrrolo[1,2-a]azepin-6-yl)carbamoyl)benzo[b]thiophen-5-yl)methyl) (phenoxy)phosphoryl)oxy)ethyl) 3-hydroxy-2,2-dimethyl-propanethioate], the IC50 on pY641-STAT6 in PBMC (pSTAT6, PBMC, Table 1114) was greater than 3000 nM; on pY705-STAT3 in PBMC (Table 1114, read-out: pSTAT3), 100 to 1000 nM.

On to `CC(C)(C)C(=O)OCOP(=O)(OCOC(=O)C(C)(C)C)C(F)(F)c1ccc2sc(C(=O)N[C@H]3CCCC4CC[C@@H](C(=O)N5CC(N6CCOCC6)C5)N4C3=O)cc2c1` (stereo partly drawn) [Compound 249, (((difluoro(2-(((3S,6S)-3-(3-morpholinoazetidine-1-carbonyl)-5-oxooctahydro-1H-pyrrolo[1,2-a]azepin-6-yl)carbamoyl)benzo [b]thiophen-5-yl)methyl)phosphoryl)bis(oxy))bis (methylene) bis(2,2-dimethylpropanoate)], for which the IC50 on pY641-STAT6 in PBMC (PBMC, Table 115, read-out: STAT6) is 100 to 1000 nM; on pY705-STAT3 in PBMC (Table 115, read-out: STAT3) it was less than 100 nM.

With `CCCOC(=O)[C@H](C)NP(=O)(Cc1ccc2sc(C(=O)N[C@H]3CCC[C@H]4CC[C@@H](C(=O)N5CCC(c6cccnc6)C5)N4C3=O)cc2c1)Oc1ccccc1` (stereo partly drawn) [Compound 252, propyl (((2-(((3S,6S,9aS)-5-oxo-3-(3-(pyridin-3-yl)pyrrolidine-1-carbonyl)octahydro-1H-pyrrolo[1,2-a]azepin-6-yl)carbamoyl)benzo [b]thiophen-5-yl)methyl)(phenoxy)phosphoryl)-L-alaninate], the IC50 against pY641-STAT6 in PBMC (STAT6, PBMC, Table 115) was 100 to 1000 nM; at pY705-STAT3 in PBMC (Table 115, read-out: STAT3), 1000 to 3000 nM.
